This is an account of results in patent EP4389751A1, “HETEROCYCLIC COMPOUNDS AND USES THEREOF” (Kumquat Biosciences Inc., priority 2021, dated 2024).

In one experiment the test system is A549 cells. The experiment in a line: Cell proliferation assay (CellTiter-Glo), K-Ras G12S cells. It is filed as cell-based. In short, it runs like this:
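A549 cells (K-Ras G12S) in RPMI-1640 with 10% FBS, seeded in standard or ultra-low-attachment plates and dosed next day with a 10-point 3-fold series. Viability read about 6 days later by CellTiter-Glo luminescence. IC50 from four-parameter fit.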
For orientation: In ATP-based viability assays light output follows the ATP content of the culture.

A further experiment deals with T1, K-Ras G12S (Homo sapiens, UniProt P01116, G12S).
T1 construct: made in house; host or cells: E. coli (e.g., BL21 (DE3))
T1 sequence (P01116 1-188 isoform P01116-2 G12S): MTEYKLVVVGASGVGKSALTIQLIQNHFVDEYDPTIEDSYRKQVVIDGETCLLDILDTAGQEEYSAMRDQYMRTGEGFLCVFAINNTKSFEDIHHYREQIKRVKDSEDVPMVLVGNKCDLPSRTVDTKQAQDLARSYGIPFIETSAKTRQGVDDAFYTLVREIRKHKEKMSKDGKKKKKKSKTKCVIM
In words: HTRF assay of the K-Ras / SOS1 interaction. It is filed as biochemical. Particulars: IC50 (against K-Ras G12D) to IC50 (against K-Ras G12S). In short, it runs like this: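 Compounds (duplicates, 10 µM to 0.01 µM) were incubated ≥~10 min with Eu-labelled GST-K-Ras G12S and XL665-labelled His-hSOS1 in HEPES pH 7.4 buffer containing NaCl, DTT, BSA and Igepal. Disruption measured as HTRF emission ratio 665/620 nm, fitted to IC50.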

As for `Cc1ncn(C(=O)N2CC3CCN(c4nc(OC[C@@]56CCCN5C[C@H](F)C6)nc5c(F)c(-c6ccc(F)c7sc(N)c(C#N)c67)c(Cl)cc45)C3C2)n1` (stereo partly drawn) [Compound A304, 2-amino-4-(6-chloro-8-fluoro-2-(((2R,7aS)-2-fluorotetrahydro-1H-pyrrolizin-7a(5H)-yl)methoxy)-4-(5-(3-methyl-1 H-1,2,4-triazole-1-carbonyl)hexahydropyrrolo[3,4-b]pyrrol-1(2H)-yl)quinazolin-7-yl)-7-fluorobenzo[b]thiophene-3-carbonitrile], in the experiment with A549 cells (Homo sapiens, A549, A549 cells (K-Ras G12S), bin ≤ 500 nM, read-out: Inhibition of A549 Cells (IC50)), the IC50 was no more than 500 nM. In addition, the “ratio of IC50 against a G12D cell line to IC50 against a G12S cell line” value in the experiment with A549 cells (K-Ras G12D cell line such as GP2D relative to K-Ras G12S cell line such as A549, greater than 1, 2, 3, 4, 5, 10, 15 or even greater, 8640 min) is listed as “greater than 1”. The “Ratio of IC50 KRAS G12D vs. IC50 KRAS G12S” value on K-Ras G12S is reported as “A (A: indicates that the ratio of IC50 against KrasG12D vs. IC50 against KrasG12S is 1-fold or greater)”.

What is called IC50 is the concentration that inhibits the measured activity by half.
